Key:
[1] = tested on: Phytophthora sojae; experiment: In vitro inhibition of hypha growth of oomycete pathogens (microplate, OD595): Phytophthora sojae; type: cell-based; details: for inhibition at 0.005 µg/mL / inhibition at 0.05 µg/mL / inhibition at 0.5 µg/mL / inhibition at 5 µg/mL: read-out: inhibitory activity on hypha growth
[2] = tested on: Cucumber downy mildew (Pseudoperonospora cubensis); experiment: Field efficacy test for controlling cucumber downy mildew
Description: The test was carried out according to the Guidelines for the Field Efficacy Trials of Pesticides (Part 1): Fungicides Against Downy Mildew of Cucumber (GB/T17980.26-2000). The test site was a mature vegetable base of Hushu in Nanjing, Jiangsu Province. Cucumber downy mildew (Pseudoperonospora cubensis) was used as the target, oxathiapiprolin and Yin Fali were used as control agents. The test crops was cucumber and the variety was ‘Green Core’. The plots were arranged in a randomized block design, with each plot approximately 8 m^2 and each treatment replicated three times. The whole stem and leaf spray was employed, the test was carried out at the early stage of cucumber downy mildew occurrence, and the agents were applied twice consecutively, with the second application 5 days after the first one. The investigation method was to take one investigation point for every row of cucumbers in each treatment district, assess the severity of downy mildew of all leaves of all cucumber plants, and calculate the disease index and the prevention effect.

[3] = tested on: Phytophthora infestans; experiment: microbe, parasite or virus in culture; type: cell-based; details: for inhibition at 0.005 µg/mL / inhibition at 0.05 µg/mL / inhibition at 0.5 µg/mL / inhibition at 5 µg/mL: read-out: inhibitory activity on hypha growth
[4] = tested on: cucumber downy mildew; experiment: Activity in vivo for inhibiting cucumber downy mildew (potting method, greenhouse)
Excerpt: The test and investigation method refers to a SOP-SC-1098 cucumber downy mildew potting method in the fungicide section of Standard operation Specification for testing biological Activity of pesticides written by Kang Zhuo and Gu Baogen.

[5] = tested on: Phytophthora capsici; experiment: In vitro inhibition of hypha growth of oomycete pathogens (microplate, OD595): Phytophthora capsici; type: cell-based; details: for inhibition at 0.005 µg/mL / inhibition at 0.05 µg/mL / inhibition at 0.5 µg/mL / inhibition at 5 µg/mL: read-out: inhibitory activity on hypha growth
[6] = tested on: Phytophthora nicotianae; experiment: In vitro inhibition of hypha growth of oomycete pathogens (microplate, OD595): Phytophthora nicotianae; type: cell-based; details: for inhibition at 0.005 µg/mL / inhibition at 0.05 µg/mL / inhibition at 0.5 µg/mL / inhibition at 5 µg/mL: Phytophthora nicotianae, read-out: inhibitory activity on hypha growth
[7] = after the first pesticide application, 50 mg/L
[8] = after the second pesticide application, 50 mg/L
[9] = 0.005 mg/L, re-screening, Table 2
[10] = 0.02 mg/L, re-screening, Table 2
[11] = 0.078 mg/L, re-screening, Table 2
[12] = 0.312 mg/L, re-screening, Table 2
[13] = 1.25 mg/L, re-screening, Table 2

## CCOC(CC(=O)N1CCC(c2nc(C3=NOC(c4c(F)cccc4F)C3)cs2)CC1)OC (stereo not shown) [II-3]
[1]; 5, 0.5 and 0.05 mg/L, in words
  inhibitory activity compared with OXA: comparable to that of the control agent OXA
[1]
  inhibition at 0.005 µg/mL: 75 to 90%
  inhibition at 0.05 µg/mL: 90 to 100%
  inhibition at 0.5 µg/mL: 90 to 100%
  inhibition at 5 µg/mL: 90 to 100%
[2]; 50 mg/L, in words
  control effect compared with OXA and Yinfali: better than that of the control agents OXA and Yinfali
[2]; [7]
  Average control effect: 66.63%
  Average disease index: 2.80
[2]; [8]
  Average control effect: 79.72%
  Average disease index: 6.93
[2]; in words
  effect in controlling cucumber downy mildew in the field: good effect in controlling cucumber downy mildew, it can effectively protect new leaves and can effectively inhibit the spread of disease spots on the infected leaves
[3]; 5, 0.5 and 0.05 mg/L, in words
  inhibitory activity compared with OXA: comparable to that of the control agent OXA
[3]
  inhibition at 0.005 µg/mL: 75 to 90%
  inhibition at 0.05 µg/mL: 90 to 100%
  inhibition at 0.5 µg/mL: 90 to 100%
  inhibition at 5 µg/mL: 90 to 100%
[4]; 0.005 mg/L, in words
  efficacy compared with OXA: comparable to that of the control agent OXA
[4]; [9]
  Control effect: A (90%≤A≤100%)
[4]; [10]
  Control effect: A (90%≤A≤100%)
[4]; 0.078 mg/L, in words
  efficacy compared with dimethomorph and cyazofamid: superior to that of dimethomorph and cyazofamid
  efficacy compared with oxathiapiprolin: equivalent to that of oxathiapiprolin at the same concentration
[4]; 0.078 mg/L, re-screening
  Control effect: ≥ 90%
[4]; [11]
  Control effect: A (90%≤A≤100%)
[4]; [12]
  Control effect: A (90%≤A≤100%)
[4]; 0.625 mg/L, Table 3
  Control effect: A (90% ≤ A ≤ 100%)
[4]; 1.25 mg/L, Table 1
  Control effect: A (90%≤A≤100%)
[4]; [13]
  Control effect: A (90%≤A≤100%)
[4]; 2.5 mg/L, Table 3
  Control effect: A (90% ≤ A ≤ 100%)
[4]; 5 mg/L, Table 1
  Control effect: A (90%≤A≤100%)
[4]; 10 mg/L, Table 3
  Control effect: A (90% ≤ A ≤ 100%)
[4]; 20 mg/L, Table 1
  Control effect: A (90%≤A≤100%)
[4]; re-screening, in words
  bactericidal activity: excellent bactericidal activity
[5]; 5, 0.5 and 0.05 mg/L, in words
  inhibitory activity compared with OXA: comparable to that of the control agent OXA
[5]
  inhibition at 0.005 µg/mL: 90 to 100%
  inhibition at 0.05 µg/mL: 90 to 100%
  inhibition at 0.5 µg/mL: 90 to 100%
  inhibition at 5 µg/mL: 90 to 100%
[6]
  inhibition at 0.005 µg/mL: 90 to 100%
  inhibition at 0.05 µg/mL: 90 to 100%
  inhibition at 0.5 µg/mL: 90 to 100%
  inhibition at 5 µg/mL: 90 to 100%
[6]; Pythium nicotianae, 5, 0.5 and 0.05 mg/L, in words
  inhibitory activity compared with OXA: comparable to that of the control agent OXA

## Cc1cc(C(F)(F)F)nn1CC(=O)N1CCC(c2nc(C3=NOC(c4c(F)cccc4F)C3)cs2)CC1 (stereo not shown) [OXA, oxathiapiprolin, reference compound]
[1]
  inhibition at 0.005 µg/mL: 90 to 100%
  inhibition at 0.05 µg/mL: 90 to 100%
  inhibition at 0.5 µg/mL: 90 to 100%
  inhibition at 5 µg/mL: 90 to 100%
[2]; [7]
  Average control effect: 36.02%
  Average disease index: 5.36
[2]; [8]
  Average control effect: 74.87%
  Average disease index: 8.59
[3]
  inhibition at 0.005 µg/mL: 90 to 100%
  inhibition at 0.05 µg/mL: 90 to 100%
  inhibition at 0.5 µg/mL: 90 to 100%
  inhibition at 5 µg/mL: 90 to 100%
[4]; [9]
  Control effect: A (90%≤A≤100%)
[4]; [10]
  Control effect: A (90%≤A≤100%)
[4]; [11]
  Control effect: A (90%≤A≤100%)
[4]; [12]
  Control effect: A (90%≤A≤100%)
[4]; 0.625 mg/L, Table 3
  Control effect: A (90% ≤ A ≤ 100%)
[4]; [13]
  Control effect: A (90%≤A≤100%)
[4]; 2.5 mg/L, Table 3
  Control effect: A (90% ≤ A ≤ 100%)
[4]; 10 mg/L, Table 3
  Control effect: A (90% ≤ A ≤ 100%)
[5]
  inhibition at 0.005 µg/mL: 90 to 100%
  inhibition at 0.05 µg/mL: 90 to 100%
  inhibition at 0.5 µg/mL: 90 to 100%
  inhibition at 5 µg/mL: 90 to 100%
[6]
  inhibition at 0.005 µg/mL: 90 to 100%
  inhibition at 0.05 µg/mL: 90 to 100%
  inhibition at 0.5 µg/mL: 90 to 100%
  inhibition at 5 µg/mL: 90 to 100%
